Results taken from ChEMBL document CHEMBL1133139, “Stereochemistry of halopyridyl and thiazolyl thiourea compounds is a major determinant of their potency as nonnucleoside inhibitors of HIV-1 reverse transcriptase” (Bioorg Med Chem Lett, 2000).

Key:
[1] = target: T1, Human immunodeficiency virus type 1 reverse transcriptase (Human immunodeficiency virus 1, UniProt Q72547); assay: Compound was evaluated for its inhibitory activity against recombinant HIV-1 Reverse transcriptase using cell free RT inhibition assay
[2] = Inhibit the replication of the HIV-1 strain […] in human peripheral blood mononuclear cell; type: functional
[3] = target: T1, Human immunodeficiency virus type 1 reverse transcriptase; assay: Binding affinity against HIV reverse transcriptase (Estimated Ki)
H9 = assay: Inhibitory activity against multidrug resistant HIV-1 strain RT-MDR; type: functional, cell-based; conditions: Homo sapiens
[4] = test system: Human immunodeficiency virus 1; assay: Inhibitory activity against NNI-resistant HIV-1 strain A17 with Y181C mutation; type: functional, organism-based
[5] = test system: Human immunodeficiency virus 1; assay: Inhibitory activity against NNI-resistant HIV-1 strain A17 with Y181C,K103N mutation; type: functional, organism-based
[6] = Compound was evaluated for its ability to inhibit the replication of the HIV-1 strain […] in human peripheral blood mononuclear cells; type: functional

| SMILES | IC50 [1] | IC50 [2] | Ki [3] | IC50 (H9) | IC50 [4] | IC50 [5] | IC50 [6] |
| --- | --- | --- | --- | --- | --- | --- | --- |
| C[C@@H](/N=C(\S)Nc1ccccn1)C1CCCCC1 | > 100 µM | > 1 µM | > 100 µM | – | – | – | – |
| Fc1ccccc1CCNC(=S)Nc1ccc(Br)cn1 | – | < 0.001 µM | 0.6 µM | 0.005 µM | 0.2 µM | 41 µM | – |
| C[C@H](/N=C(\S)Nc1ccc(Cl)cn1)c1ccccc1 | > 100 µM | – | – | – | – | – | – |
| C[C@H](/N=C(\S)Nc1ccc(Br)cn1)c1ccccc1 | > 100 µM | > 1 µM | – | – | – | – | – |
| C[C@H](/N=C(\S)Nc1ccc(Br)cn1)C1CCCCC1 | > 100 µM | > 1 µM | > 100 µM | – | – | – | – |
| C[C@@H](NC(=S)Nc1ccc(Br)cn1)c1ccccc1 | 1.6 µM | 0.01 µM | – | 0.005 µM | 0.01 µM | 2.7 µM | – |
| C[C@@H](NC(=S)Nc1ccc(Br)cn1)C1CCCCC1 | 1.2 µM | – | 1.1 µM | 0.2 µM | 0.4 µM | 10 µM | 0.001 µM |
| CC(C)Nc1cccnc1N1CCN(C(=O)c2cc3cc(NS(C)(=O)=O)ccc3[nH]2)CC1 [DELAVIRDINE] | – | 0.009 µM | – | 0.4 µM | 50 µM | > 100 µM | – |
| C[C@H](NC(=S)Nc1nccs1)C1CCCCC1 | > 100 µM | > 1 µM | > 100 µM | – | – | – | – |
| C[C@@H](NC(=S)Nc1ccc(Cl)cn1)c1ccccc1 | 1.2 µM | 0.01 µM | – | 0.01 µM | 0.2 µM | 10.2 µM | – |
| C[C@@H](/N=C(\S)Nc1nccs1)C1CCCCC1 | 13 µM | 0.001 µM | 12 µM | 5.6 µM | 0.9 µM | 5.8 µM | – |
| C[C@H](NC(=S)Nc1ccccn1)C1CCCCC1 | > 100 µM | > 1 µM | > 100 µM | – | – | – | – |
| C[C@H](/N=C(\S)Nc1ccc(Cl)cn1)C1CCCCC1 | > 100 µM | > 1 µM | > 100 µM | – | – | – | – |
| C[C@@H](/N=C(\S)Nc1ccc(Cl)cn1)C1CCCCC1 | 1.4 µM | 0.025 µM | 1.2 µM | 0.06 µM | 0.07 µM | 8.2 µM | – |
| Cc1ccnc2c1NC(=O)c1cccnc1N2C1CC1 [NEVIRAPINE] | – | 0.034 µM | – | 5 µM | > 100 µM | > 100 µM | – |
| S=C(NCCc1ccccn1)Nc1ccc(Br)cn1 [TROVIRDINE] | – | 0.007 µM | 0.6 µM | 0.02 µM | 0.5 µM | > 100 µM | – |
